# Measurements from patent US20140187594A1, “DIPHENYL ETHER COMPOUNDS FOR THE TREATMENT OF LIVER, LUNG DISORDERS, DIABETIC COMPLICATIONS AND CARDIOVASCULAR DISEASES” (ORCHID CHEMICALS AND PHARMACEUTICALS LTD, priority 2010, published 2014).
# Test system: DIO mice
# Assay: Insulin resistance (HOMA-IR) in diet induced obese mice
# Format: in vivo, C57BL/6 mice
# Details: 30 mg/kg for 28 days, FIG. 22
# Method: The animal model with obesity with insulin resistance was developed by feeding 60 Kcal % high fat diet, which simulates several features of human obesity and insulin resistance. These features were treated as mentioned below. […] C57BL/6 male mice aged 6-8 weeks, and body weight ranges between 16-22 g were used. Animals were divided into two groups. First group (n=10) was treated as a normal control fed chow feed (Nutri Labe Rodent, Tetragon Chemie Pvt. Ltd., Bangalore) and the second group (n=25) fed 60 Kcal % high fat diet (HFD) (Research Diets, New Brunswick, N.J., Cat# D12492 with blue dye) for 120 days. At the end of induction period the animals were selected based on insulin resistance for further study. […] During this period, body weight and feed intake was recorded daily. […]
# The parameters like Glucose, ALT, AST, TC, TG (Clinical chemistry analyzer Erba XL 300), insulin (Linco®-CA, Product code: EZRMI-13K) and TNFα (GE Healthcare, Amersham, UK. Product code: RPN2718) were measured using commercially available kits. NEFA was measured in serum using commercially available NEFA C kit (Product code No: 279-75401, Wako pure chemical industries ltd., Japan).
smiles,measurement,value
"COC(=O)[C@@H](N)Cc1ccc(Oc2ccc(CC3SC(=O)NC3=O)cc2)cc1 (stereo partly drawn) [Compound of formula (A), Methyl(2S)-2-amino-3-(4-{4-[(2,4-dioxo-1,3-thiazolidin-5-yl)methyl]phenoxy}phenyl)propanoate]",HOMA-IR,improvement in HOMA-IR
